# In patent publication US10940188B2, “Compounds and methods for treatment and prevention of Flavivirus infection” (priority 2016, dated 2021):
# Structures can show the parent of a compound that is named as a salt. Where two headings read alike, the source gives them in different places. Numbered stars: 1 amine (or outer) side, 2 acyl side, 3 side chain; on linkers, the order of the positions; unused ones are H or OH. Bridge positions count the residues as written; N and C are the ends. Square brackets hold non-standard residues; d marks the D form. Peptide text beside a SMILES is read from it. I, II: the chains in the order shown. Actinocin(9to1) = Cc1c2oc3c(C)ccc(C(=O)[*:1])c3nc-2c(C(=O)[*:2])c(N)c1=O; NMeV = CN[C@H](C(=O)O)C(C)C; Sar = CNCC(=O)O
# Columns and labels:
# HEK293 cells = experiment: Toxicity IC50 (cell-killing activity) of the NS1 TR-FRET screen; format: cell-based, human
# ZIKV MR766 NS1 = experiment: microbe, parasite or virus in culture; format: cell-based, Zika virus; conditions: read-out: NS1-IC50
# Method: A one-step NS1 TR-FRET (Time-resolved fluorescence resonance energy transfer) assay for a screen of anti-ZIKV compounds was carried out. Human embryonic kidney cell line HEK293 cells were seeded into 384-well plates and infected with ZIKV MR766 at a MOI of 0.5 for 2 days. The FRET assay was performed with two clones of anti-NS1 antibody (ab) differentially labelled with donor and acceptor fluorophores.
# [1] = test system: ZIKV-induced cell death in human astrocytes; experiment: ATP cell viability assay for ZIKV-induced cell death, human astrocytes; format: cell-based
# [2] = test system: ZIKV-induced caspase 3/7 activity in hNPCs; experiment: Caspase 3/7 activity assay, ZIKV-infected hNPCs; format: cell-based; conditions: ZIKV-infected hNPCs; for IC50: read-out: Caspase 3 (IC50, uM) NPCs; for Emax: read-out: Caspase 3 (efficacy, %) NPCs
# Procedure, shortened: (§1)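 Human NPCs, SNB-19 cells or astrocytes seeded 16 h, compound added 30 min before ZIKV, then 6 h infection at 37 °C. Caspase-Glo 3/7 luminescence after 30 min at room temperature, normalized to uninfected cells (0%) and ZIKV-infected cells (100%).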
# [3] = test system: ZIKV-induced caspase 3/7 activity in human astrocytes; experiment: Caspase 3/7 activity assay, ZIKV-infected human astrocytes; format: cell-based; conditions: ZIKV-infected human astrocytes; for IC50: read-out: Caspase 3 (IC50, uM) Astrocyte; for Emax: read-out: Caspase 3 (efficacy, %) Astrocyte
# Procedure, shortened: as §1
# [4] = test system: ZIKV-induced caspase 3/7 activity in SNB-19 cells; experiment: Caspase 3/7 activity assay, ZIKV-infected SNB-19 cells; format: cell-based; conditions: ZIKV-infected SNB-19 cells; for IC50: read-out: Caspase 3 (IC50, uM) SNB-19; for Emax: read-out: Caspase 3 (efficacy, %) SNB-19
# Procedure, shortened: as §1
# [5] = test system: ZIKV-induced cell death in SNB-19 cells; experiment: ATP cell viability assay for ZIKV-induced cell death, SNB-19 cells; format: cell-based, human
# Procedure, shortened: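 The extent of cell death caused by ZIKV infection was determined from ATP levels. Cells grew in assay plates for 16 hours at 37° C. with 5% CO2, were then given ZIKV solution and kept under the same conditions for 72 hours. ATPlite reagent was applied for 15 minutes and luminescence was read on a ViewLux plate reader. Cell-free wells defined 100% killing and uninfected cell wells defined full viability.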
# [6] = cell-killing activity, read-out: Tox IC50
# [7] = HEK293 cells, ZIKV MR766, MOI 0.5, 2 days, virus-inhibiting activity
# [8] = Homo sapiens, HEK293, cell-killing activity, read-out: Tox IC50
molecule,measurement,setting,value
CN[C@@H]1C[C@H]2O[C@@](C)([C@@H]1OC)n1c3ccccc3c3c4c(c5c6ccccc6n2c5c31)C(=O)N[C@H]4O [7-Hydroxystaurosporine],IC50,HEK293 cells; [6],102 µM
same,IC50,ZIKV MR766 NS1; [7],760 nM
CC[C@@]1(O)C(=O)OCc2c1cc1n(c2=O)Cc2cc3cc(O)ccc3nc2-1 [10-hydroxycamptothecin],Tox IC50,HEK293 cells; cell-killing activity,No
same,IC50,ZIKV MR766 NS1; [7],46.6 nM
CC[C@@]1(O)C(=O)OCc2c1cc1n(c2=O)Cc2cc3ccccc3nc2-1 [(S)-(+)-Camptothecin],Tox IC50,HEK293 cells; cell-killing activity,No
same,IC50,ZIKV MR766 NS1; [7],26.4 nM
CC[C@H](CC#N)OC(=O)N[C@@H](C)c1cccc(NC(=O)Nc2ccc(-c3cnco3)c(OC)c2)c1 [AVN-944],IC50,"HEK293 cells; Homo sapiens, HEK293, read-out: Tox IC50",20 µM
same,IC50,"ZIKV MR766 NS1; Zika virus, HEK293, 48 h",136 nM
NC(=O)Nc1cc(-c2cccc(F)c2)sc1C(=O)N[C@H]1CCCNC1 [AZD-7762],Tox IC50,HEK293 cells; cell-killing activity,No
same,IC50,"ZIKV MR766 NS1; Zika virus, HEK293, 48 h",366 nM
"Cc1c2oc3c(C)ccc(C(=O)N[C@@H]4C(=O)N[C@H](C(C)C)C(=O)N5CCC[C@H]5C(=O)N(C)CC(=O)N(C)[C@@H](C(C)C)C(=O)O[C@@H]4C)c3nc-2c(C(=O)N[C@@H]2C(=O)N[C@H](C(C)C)C(=O)N3CCC[C@H]3C(=O)N(C)CC(=O)N(C)[C@@H](C(C)C)C(=O)O[C@@H]2C)c(N)c1=O [Actinomycin D] (I: T[dV]P[Sar][NMeV] / II: T[dV]P[Sar][NMeV]; ester I:1-I:C, II:1-II:C; linker I:N-II:N via Actinocin(9to1))",Tox IC50,HEK293 cells; cell-killing activity,No
same,IC50,ZIKV MR766 NS1; [7],352 nM
CC[C@@H]1C(=O)N(C)c2cnc(Nc3ccc(C(=O)NC4CCN(C)CC4)cc3OC)nc2N1C1CCCC1 [BI-2536],Tox IC50,HEK293 cells; cell-killing activity,No
COC(=O)[C@]12CCC(C)(C)C[C@H]1[C@H]1C(=O)C=C3[C@@]4(C)C=C(C#N)C(=O)C(C)(C)[C@@H]4CC[C@@]3(C)[C@]1(C)CC2 [Bardoxolone methyl],IC50,HEK293 cells; [8],2.68 µM
same,IC50,"ZIKV MR766 NS1; Zika virus, HEK293, 48 h",282 nM
OCCCNc1cc(-c2ccnc(Nc3cccc(Cl)c3)n2)ccn1 [CGP-60474],IC50,HEK293 cells; [6],60 µM
same,IC50,ZIKV MR766 NS1; [7],794 nM
O=c1[nH]c2ccc(Cl)cc2c(N[C@@H]2CN3CCC2CC3)c1-c1nc2ccccc2[nH]1 [CHIR-124],IC50,HEK293 cells; [6],3.25 µM
same,IC50,ZIKV MR766 NS1; [7],405 nM
C/C=C(\C)C(=O)N[C@@H](c1ccccc1)[C@@H](O)C(=O)O[C@H]1C[C@@]2(O)[C@@H](OC(=O)c3ccccc3)[C@@H]3[C@]4(OC(C)=O)CO[C@@H]4C[C@H](O)[C@@]3(C)C(=O)[C@H](OC(C)=O)C(=C1C)C2(C)C [Cephalomannine],Tox IC50,HEK293 cells; cell-killing activity,No
same,IC50,"ZIKV MR766 NS1; Zika virus, HEK293, 48 h",221 nM
C[C@H]1CCC/C=C/[C@@H]2C[C@H](O)C[C@H]2[C@H](O)/C=C/C(=O)O1 [Cyanein],Tox IC50,HEK293 cells; cell-killing activity,No
same,IC50,ZIKV MR766 NS1; [7],432 nM
C[C@@H]1C[C@@H]([C@H](O)CC2CC(=O)NC(=O)C2)C(=O)[C@@H](C)C1 [Cycloheximide],Tox IC50,HEK293 cells; cell-killing activity,No
same,IC50,"ZIKV MR766 NS1; Zika virus, HEK293, 48 h",287 nM
COc1cccc2c1C(=O)c1c(O)c3c(c(O)c1C2=O)C[C@@](O)(C(C)=O)C[C@@H]3O[C@H]1C[C@H](N)[C@H](O)[C@H](C)O1 [Daunorubicin],Tox IC50,HEK293 cells; cell-killing activity,No
same,IC50,"ZIKV MR766 NS1; Zika virus, HEK293, 48 h",536 nM
CC(C)C[C@H](NC(=O)[C@@H](NC(=O)c1cccc(-c2ccccc2)n1)[C@@H](C)O)B(O)O [Delanzomib],IC50,HEK293 cells; [8],0.3 µM
same,IC50,"ZIKV MR766 NS1; Zika virus, HEK293, 48 h",58.5 nM
C[C@H]1O[C@@H](O[C@H]2[C@@H](O)C[C@H](O[C@H]3[C@@H](O)C[C@H](O[C@H]4CC[C@@]5(C)[C@H](CC[C@@H]6[C@@H]5C[C@@H](O)[C@]5(C)[C@@H](C7=CC(=O)OC7)CC[C@]65O)C4)O[C@@H]3C)O[C@@H]2C)C[C@H](O)[C@@H]1O [Digoxin],IC50,HEK293 cells; [8],60 µM
same,IC50,"ZIKV MR766 NS1; Zika virus, HEK293, 48 h",152 nM
CS[C@H]1SC[C@H]2C(=O)N(C)[C@@H](C(C)C)C(=O)OC[C@@H](NC(=O)c3cnc4ccccc4n3)C(=O)N[C@@H](C)C(=O)N(C)[C@@H]1C(=O)N(C)[C@@H](C(C)C)C(=O)OC[C@@H](NC(=O)c1cnc3ccccc3n1)C(=O)N[C@@H](C)C(=O)N2C [Echinomycin],Tox IC50,HEK293 cells; cell-killing activity,No
same,IC50,"ZIKV MR766 NS1; Zika virus, HEK293, 48 h",17.4 nM
COc1cccc2c1C(=O)c1c(O)c3c(c(O)c1C2=O)C[C@@](O)(C(=O)CO)C[C@@H]3O[C@H]1C[C@H](N)[C@@H](O)[C@H](C)O1 [Epirubicin hydrochloride],IC50,"ZIKV MR766 NS1; Zika virus, HEK293, 48 h",492 nM
C=CC[C@@H]1/C=C(\C)C[C@H](C)C[C@H](OC)[C@H]2O[C@@](O)(C(=O)C(=O)N3CCCC[C@H]3C(=O)O[C@H](/C(C)=C/[C@@H]3CC[C@@H](O)[C@H](OC)C3)[C@H](C)[C@@H](O)CC1=O)[C@H](C)C[C@@H]2OC [FK-506],IC50,"ZIKV MR766 NS1; Zika virus, HEK293, 48 h",104 nM
O=c1[nH]c(=O)n([C@H]2C[C@H](O)[C@@H](CO)O2)cc1F [Floxuridine],IC50,HEK293 cells; [8],60 µM
same,IC50,"ZIKV MR766 NS1; Zika virus, HEK293, 48 h",918 nM
Cn1c2ccccc2c2c3c(c4c5ccccc5n(CCC#N)c4c21)CNC3=O [Go-6976],IC50,HEK293 cells; [8],20.2 µM
same,IC50,"ZIKV MR766 NS1; Zika virus, HEK293, 48 h",944 nM
CC(=O)[C@]1(O)Cc2c(O)c3c(c(O)c2[C@@H](O[C@H]2C[C@H](N)[C@H](O)[C@H](C)O2)C1)C(=O)c1ccccc1C3=O [Idarubicin hydrochloride],Tox IC50,HEK293 cells; cell-killing activity,No
same,IC50,"ZIKV MR766 NS1; Zika virus, HEK293, 48 h",168 nM
Cc1ccc(C(=O)N(CCCN)[C@@H](c2nc3cc(Cl)ccc3c(=O)n2Cc2ccccc2)C(C)C)cc1 [Ispinesib],IC50,HEK293 cells; [8],37.5 µM
same,IC50,"ZIKV MR766 NS1; Zika virus, HEK293, 48 h",67.4 nM
C/C(O)=C(\C#N)C(=O)Nc1ccc(C(F)(F)F)cc1 [Teriflunomide],"Cell viability (efficacy, %) Astrocyte",[1]; ZIKV-infected human astrocytes,0.0%
same,IC50,[2]; Homo sapiens,0.92 µM
same,Emax,[2]; Homo sapiens,94.5%
same,IC50,[3]; Astrocyte,1.3 µM
same,Emax,[3]; Astrocyte,86.9%
same,IC50,[4]; Homo sapiens,1.03 µM
same,Emax,[4]; Homo sapiens,93.1%
same,"Cell viability (efficacy, %) SNB-19",[5]; ZIKV-infected SNB-19 cells,0.0%
COc1ccc(/C=C/C(=O)Nc2ccccc2C(=O)O)cc1OC [Tranilast],"Cell viability (efficacy, %) Astrocyte",[1]; ZIKV-infected human astrocytes,0.0%
same,IC50,[2]; Homo sapiens,19.5 µM
same,Emax,[2]; Homo sapiens,107%
same,IC50,[3]; Astrocyte,17.3 µM
same,Emax,[3]; Astrocyte,71.6%
same,IC50,[4]; Homo sapiens,17.3 µM
same,Emax,[4]; Homo sapiens,70.3%
same,"Cell viability (efficacy, %) SNB-19",[5]; ZIKV-infected SNB-19 cells,0.0%
O=C(Nc1ccc(Br)cc1)c1cc(Br)cc(Br)c1O [Tribromsalan],"Cell viability (efficacy, %) Astrocyte",[1],0.0%
same,IC50,[2]; Homo sapiens,13.8 µM
same,Emax,[2]; Homo sapiens,108%
same,IC50,[3]; Astrocyte,6.9 µM
same,Emax,[3]; Astrocyte,102%
same,IC50,[4]; Homo sapiens,7.74 µM
same,Emax,[4]; Homo sapiens,107%
same,"Cell viability (efficacy, %) SNB-19",[5],0.0%
N#C/C(=C\c1ccc(O)c(O)c1)C(=O)Nc1ccccc1 [Tyrphostin AG 494],"Cell viability (efficacy, %) Astrocyte",[1]; ZIKV-infected human astrocytes,0.0%
same,"Caspase 3 (efficacy, %) NPCs",[2],72.8%
same,IC50,[2],17.3 µM
same,"Caspase 3 (efficacy, %) Astrocyte",[3],72.5%
same,IC50,[3],18.4 µM
same,"Caspase 3 (efficacy, %) SNB-19",[4],55.6%
same,IC50,[4],21.8 µM
same,"Cell viability (efficacy, %) SNB-19",[5]; ZIKV-infected SNB-19 cells,45.6%
same,IC50,"[5]; ZIKV-infected SNB-19 cells, read-out: Cell viability (IC50, uM) SNB-19",30.8 µM
O=C(O)[C@@H](c1ccc(OCc2ccc3ccccc3n2)cc1)C1CCCC1 [Veliflapon],"Cell viability (efficacy, %) Astrocyte",[1]; ZIKV-infected human astrocytes,0.0%
same,IC50,[2]; Homo sapiens,9.75 µM
same,Emax,[2]; Homo sapiens,74.3%
same,IC50,[3]; Astrocyte,9.2 µM
same,Emax,[3]; Astrocyte,65.9%
same,IC50,[4]; Homo sapiens,13.8 µM
same,Emax,[4]; Homo sapiens,70%
same,"Cell viability (efficacy, %) SNB-19",[5]; ZIKV-infected SNB-19 cells,0.0%
Malachite green oxalate,"Cell viability (efficacy, %) Astrocyte",[1],0.0%
same,"Caspase 3 (efficacy, %) NPCs",[2],62.7%
same,IC50,[2],21.8 µM
same,"Caspase 3 (efficacy, %) Astrocyte",[3],54.0%
same,IC50,[3],17.3 µM
same,"Caspase 3 (efficacy, %) SNB-19",[4],0.0%
same,"Cell viability (efficacy, %) SNB-19",[5],0.0%
